For series [1], the system named is Sojabohnen. The experiment in a line: Growth inhibition in soybeans. Particulars: for pest or weed control at 2500 g/ha: Glycine max, 504 h, read-out: Wuchsshemmung (%); for Phytotox. Wirkung: soybeans, 2,5 kg/ha.
Description: (§4) Etwa 10 cm große Sojabohnen werden mit den Wirkstoffzubereitungen tropfnaß bespritzt. Nach 3 Wochen wird bonitiert.
(§5) Die Wuchshemmung wird als prozentualer Wert ermittelt, wobei 100% den Stillstand des Wachstums und 0% ein Wachstum entsprechend dem der unbehandelten Kontrollpflanzen bedeuten.
The subject of series [2] is Getreidepflanzen (Weizen, Gerste, Roggen). The experiment in a line: Phytotoxic effect observed in the cereal growth inhibition test. Particulars: cereals; one cell for 2,5 and 1,25 kg/ha. It is filed as in vivo. The text has this: (§1) In Schalenversuchen im Gewächshaus werden junge Getreidepflanzen (Weizen, Gerste, Roggen) im 3-Blattstadium mit erfindungsgemäßen Verbindungen in verschiedenen Wirkstoffkonzentrationen (kg/ha) tropfnaß gespritzt.
(§2) Es wird außerdem die phytotoxische Wirkung der Verbindung beobachtet.

For series [3], the system named is Reispflanzen. Briefly: Growth inhibition in paddy rice, small plots. Particulars: for pest or weed control at 620 g/ha / pest or weed control at 1250 g/ha: Oryza sativa, 504 h, read-out: Wuchsshemmung (%); for Phytotox. Wirkung: paddy rice, one cell for 1,25 and 0,62 kg/ha.
Description: (§6) Reispflanzen werden in Kleinparzellen (2 m x 2 m) angezogen und im Stadium der maximalen Bestockung mit erfindungsgemäßen Verbindungen behandelt. Die Substanzen werden sowohl durch Spritzung appliziert als auch in das Wasser gegeben.
(§7) 3 Wochen nach der Behandlung wird bei allen Pflanzen der Zuwachs gemessen und die Wuchshemmung in % des Zuwachses der Kontrollpflanzen berechnet. Es wird außerdem auf eine mögliche phytotoxische Wirkung der Verbindungen geachtet.
as §5
Another series deals with Gerste. The experiment in a line: Growth inhibition in cereals, greenhouse tray test, sprayed at 3-leaf stage. In kind it is in vivo. Particulars: % of growth increment of untreated controls; for pest or weed control at 1250 g/ha / pest or weed control at 2500 g/ha: read-out: Wuchsshemmung in % bei Gerste.
Description: as §1, §2

Another series deals with Roggen. The series is described as above. In kind it is in vivo. Particulars: % of growth increment of untreated controls; for pest or weed control at 1250 g/ha / pest or weed control at 2500 g/ha: read-out: Wuchsshemmung in % bei Roggen. The text has this:
(§3) In Schalenversuchen im Gewächshaus werden junge Getreidepflanzen (Weizen, Gerste, Roggen) im 3-Blattstadium mit erfindungsgemäßen Verbindungen in verschiedenen Wirkstoffkonzentrationen (kg/ha) tropfnaß gespritzt. […]

In another series the test system is Weizen. The description is as above. In kind it is in vivo. Particulars: % of growth increment of untreated controls (100% = growth standstill); for pest or weed control at 1250 g/ha / pest or weed control at 2500 g/ha: read-out: Wuchsshemmung in % bei Weizen.
Description: as §3

In series [4] the test system is Reispflanzen. Particulars: in vivo.
Description: as §6, §7, §5
Series [5] deals with Sojabohnen. Particulars: in vivo.
Description: as §4, §5

Like-named read-outs stand apart in the source and are kept apart here.

Regarding `CCc1cccc(CC)c1-n1cncc1C=NO` [Beispiel 14, 1-(2,6-Diethylphenyl)-5-hydroximinomethyl-imidazol], the pest or weed control at 2500 g/ha in the series on Sojabohnen [1] is 20%; in the series with Gerste (2,5 kg/ha), 32%; in the series with Roggen (2,5 kg/ha), 24%; in the series on Weizen (2,5 kg/ha), 19%. Besides, the “Phytotox. Wirkung” value (in the series with Sojabohnen [1]; in series [2]; with Reispflanzen [3]) was “keine Schäden” throughout. The pest or weed control at 620 g/ha with Reispflanzen [3] was 13%. The pest or weed control at 1250 g/ha worked out at 21% in the series with Reispflanzen [3], 16% in the series on Gerste (1,25 kg/ha), 13% in the series with Roggen (1,25 kg/ha) and 11% with Weizen (1,25 kg/ha).
Turning to `CCc1cccc(CC)c1-n1cncc1C(=O)NCC#N` [Beispiel 57], the pest or weed control at 2500 g/ha with Sojabohnen [1] was determined as 18%; with Gerste (2,5 kg/ha), 31%; in the series on Roggen (2,5 kg/ha) it was 23%; in the series on Weizen (2,5 kg/ha), 23%. The “Phytotox. Wirkung” value (in the series on Reispflanzen [4]; in series [2]; in the series on Sojabohnen [5]) was “keine Schäden” in each case. Moreover, the pest or weed control at 620 g/ha with Reispflanzen [3] came out at 13%. Further, the pest or weed control at 1250 g/ha with Reispflanzen [3] was found to be 20%; in the series on Gerste (1,25 kg/ha) it was 18%; in the series on Roggen (1,25 kg/ha) it was 17%; in the series on Weizen (1,25 kg/ha) it was 12%.
Turning to `CCc1cccc(CC)c1-n1cncc1C(=O)OC1CCCCC1` [Beispiel 36], the pest or weed control at 2500 g/ha is 19% in the series on Sojabohnen [1], 33% in the series with Gerste (2,5 kg/ha), 23% in the series with Roggen (2,5 kg/ha) and 19% in the series on Weizen (2,5 kg/ha). Moreover, the “Phytotox. Wirkung” value (in the series with Reispflanzen [4]; in series [2]; in the series on Sojabohnen [5]) was “keine Schäden” in each case. Further, the pest or weed control at 620 g/ha in the series on Reispflanzen [3] was determined as 14%. The pest or weed control at 1250 g/ha in the series with Reispflanzen [3] was 21%; in the series on Gerste (1,25 kg/ha), 17%; in the series with Roggen (1,25 kg/ha), 13%; in the series on Weizen (1,25 kg/ha), 10%.
Consider `CCc1cccc(CC)c1-n1cncc1C(=O)NCC(=O)OC` [Beispiel 61], for which the pest or weed control at 2500 g/ha in the series on Sojabohnen [1] came to 17%; in the series on Gerste (2,5 kg/ha), 31%; in the series with Roggen (2,5 kg/ha), 25%; in the series with Weizen (2,5 kg/ha), 23%. Also, the “Phytotox. Wirkung” value (in the series with Reispflanzen [4]; in series [2]; with Sojabohnen [5]) was “keine Schäden” each time. Besides, in the series on Reispflanzen [3], the pest or weed control at 620 g/ha came out at 13%. Further, the pest or weed control at 1250 g/ha in the series on Reispflanzen [3] was 20%; in the series on Gerste (1,25 kg/ha) it was 19%; in the series on Roggen (1,25 kg/ha), 18%; in the series on Weizen (1,25 kg/ha) it was 13%.
As for `CCc1cccc(CC)c1-n1cncc1CO` [Beispiel 12, 1-(2,6-Diethylphenyl)-5-hydroxymethyl-imidazol], the pest or weed control at 2500 g/ha was 21% with Sojabohnen [1], 33% with Gerste (2,5 kg/ha), 24% in the series with Roggen (2,5 kg/ha) and 23% in the series on Weizen (2,5 kg/ha). Further, the “Phytotox. Wirkung” value (in the series on Reispflanzen [4]; in series [2]; with Sojabohnen [5]) was “keine Schäden” throughout. In addition, the pest or weed control at 620 g/ha in the series on Reispflanzen [3] came to 13%. In addition, the pest or weed control at 1250 g/ha in the series with Reispflanzen [3] was 21%; in the series with Gerste (1,25 kg/ha), 17%; with Roggen (1,25 kg/ha) it was 17%; in the series with Weizen (1,25 kg/ha) it was 11%.
Take `CCc1cccc(CC)c1-n1cncc1C(=O)NO` [Beispiel 68]: the pest or weed control at 2500 g/ha in the series on Sojabohnen [1] is 26%; with Gerste (2,5 kg/ha) it was 34%; in the series with Roggen (2,5 kg/ha), 27%; with Weizen (2,5 kg/ha) it was 24%. Moreover, the “Phytotox. Wirkung” value (with Reispflanzen [4]; in series [2]; with Sojabohnen [5]) was “keine Schäden” each time. The pest or weed control at 620 g/ha in the series with Reispflanzen [3] came to 18%. For the same compound, the pest or weed control at 1250 g/ha with Reispflanzen [3] came to 25%; with Gerste (1,25 kg/ha), 21%; in the series with Roggen (1,25 kg/ha), 21%; in the series with Weizen (1,25 kg/ha) it was 20%.
Take `CCc1cccc(CC)c1-n1cncc1-c1nnn[nH]1` [Beispiel 5, 1-(2,6-Diethylphenyl)-5-(5-tetrazolyl)-imidazol]: the pest or weed control at 2500 g/ha with Sojabohnen [1] is 18%; in the series with Gerste (2,5 kg/ha), 30%; in the series on Roggen (2,5 kg/ha), 21%; in the series on Weizen (2,5 kg/ha), 18%. In addition, the “Phytotox. Wirkung” value (in the series with Reispflanzen [4]; in series [2]; with Sojabohnen [5]) was “keine Schäden” throughout. Besides, the pest or weed control at 620 g/ha with Reispflanzen [3] was determined as 11%. The pest or weed control at 1250 g/ha was 19% in the series with Reispflanzen [3], 13% with Gerste (1,25 kg/ha), 9% with Roggen (1,25 kg/ha) and 9% in the series on Weizen (1,25 kg/ha).
Take `CCc1cccc(CC)c1-n1cncc1C1=NC(C)(C)CO1` [Beispiel 6, 1-(2,6-Diethylphenyl)-5-(4,4-dimethyl-2-oxazolin-2-yl)-imidazol]: the pest or weed control at 2500 g/ha in the series on Sojabohnen [1] worked out at 19%; in the series on Gerste (2,5 kg/ha) it was 25%; in the series on Roggen (2,5 kg/ha), 17%; with Weizen (2,5 kg/ha), 17%. Moreover, the “Phytotox. Wirkung” value (in the series with Reispflanzen [4]; in series [2]; with Sojabohnen [5]) was “keine Schäden” throughout. Also, the pest or weed control at 620 g/ha in the series on Reispflanzen [3] stood at 11%. In addition, the pest or weed control at 1250 g/ha in the series on Reispflanzen [3] amounted to 18%; in the series with Gerste (1,25 kg/ha), 13%; with Roggen (1,25 kg/ha), 9%; in the series with Weizen (1,25 kg/ha), 8%.
`CCc1cccc(CC)c1-n1cncc1-c1nc(C)no1` [Beispiel 7, 1-(2,6-Diethylphenyl)-5-(3-methyl-1,2,4-oxdiazol-5-yl)-imidazol]: the pest or weed control at 2500 g/ha in the series with Sojabohnen [1] turned out to be 26%; with Gerste (2,5 kg/ha) it was 39%; with Roggen (2,5 kg/ha), 28%; with Weizen (2,5 kg/ha), 24%. Also, the “Phytotox. Wirkung” value (in the series with Reispflanzen [4]; in series [2]; in the series on Sojabohnen [5]) was “keine Schäden” each time. Further, the pest or weed control at 620 g/ha in the series on Reispflanzen [3] came out at 15%. For the same compound, the pest or weed control at 1250 g/ha in the series with Reispflanzen [3] is 24%; with Gerste (1,25 kg/ha) it was 19%; in the series with Roggen (1,25 kg/ha), 21%; in the series with Weizen (1,25 kg/ha), 15%.
Turning to `CCc1cccc(CC)c1-n1cncc1C(=O)OCSC` [Beispiel 4, Methylthiomethyl-1-(2,6-diethylphenyl)-imidazol-5-carboxylat], the pest or weed control at 2500 g/ha in the series on Sojabohnen [1] amounted to 21%; with Gerste (2,5 kg/ha), 34%; in the series with Roggen (2,5 kg/ha) it was 26%; in the series with Weizen (2,5 kg/ha), 21%. Besides, the “Phytotox. Wirkung” value (in the series on Sojabohnen [1]; in series [2]; in the series with Reispflanzen [3]) was “keine Schäden” throughout. In addition, in the series on Reispflanzen [3], the pest or weed control at 620 g/ha worked out at 16%. In addition, the pest or weed control at 1250 g/ha with Reispflanzen [3] came to 21%; in the series on Gerste (1,25 kg/ha), 17%; with Roggen (1,25 kg/ha), 20%; in the series on Weizen (1,25 kg/ha) it was 14%.
In the case of “2-Chlorethyltriethylammoniumchlorid [reference compound]”, the “Phytotox. Wirkung” value in series [2] is “keine Schäden”. The “Wuchsshemmung in % bei Gerste” value with Gerste (1,25 kg/ha) is given as 0%; with Gerste (2,5 kg/ha) it was 8%. The “Wuchsshemmung in % bei Roggen” value amounted to 0% in the series on Roggen (1,25 kg/ha) and 10% with Roggen (2,5 kg/ha). Moreover, the “Wuchsshemmung in % bei Weizen” value stood at 23% with Weizen (1,25 kg/ha) and 27% in the series on Weizen (2,5 kg/ha).
Regarding `C#CCOC(=O)c1cncn1-c1c(CC)cccc1CC` [Beispiel 37], the pest or weed control at 2500 g/ha in the series with Sojabohnen [1] was 17%; with Gerste (2,5 kg/ha), 25%; in the series with Roggen (2,5 kg/ha) it was 19%; in the series with Weizen (2,5 kg/ha) it was 15%. Also, the “Phytotox. Wirkung” value (in the series with Sojabohnen [1]; in series [2]; with Reispflanzen [3]) was “keine Schäden” throughout. Further, the pest or weed control at 620 g/ha in the series on Reispflanzen [3] amounted to 11%. The pest or weed control at 1250 g/ha in the series with Reispflanzen [3] was found to be 19%; in the series on Gerste (1,25 kg/ha), 12%; in the series on Roggen (1,25 kg/ha), 7%; in the series on Weizen (1,25 kg/ha), 8%.
